Results taken from patent US20140100107A1, “TERNARY FUNGICIDAL COMPOSITIONS COMPRISING A DITHIINO-TETRACARBOXAMIDE FUNGICIDE” (BAYER INTELLECTUAL PROPERTY GMBH, priority 2011, published 2014).

Test system: Alternaria solani
Assay: Alternaria test (tomatoes)/preventive
Format: in vivo
Details: preventive spray, evaluated 3 days after inoculation
Method: Alternaria Test (Tomatoes)/Preventive [table] To produce a suitable preparation of active compound, 1 part by weight of active compound is mixed with the stated amounts of solvent and emulsifier, and the concentrate is diluted with water to the desired concentration. To test for preventive activity, young plants are sprayed with the preparation of active compound at the stated rate of application. After the spray coating has dried on, the plants are inoculated with an aqueous spore suspension of Alternaria solani. The plants are then placed in an incubation cabinet at approximately 20° C. and a relative atmospheric humidity of 100%. The test is evaluated 3 days after the inoculation. 0% means an efficacy which corresponds to that of the untreated control while an efficacy of 100% means that no disease is observed.

O=C(NCCc1ncc(C(F)(F)F)cc1Cl)c1ccccc1C(F)(F)F [(2.6), fluopyram]
Efficacy in % found (activity found) (application rate 1 ppm a.i.): 7%

CC(C)(C)C(O)(CCc1ccc(Cl)cc1)Cn1cncn1 (stereo not drawn) [(3.47), tebuconazole]
Efficacy in % found (activity found) (application rate 1 ppm a.i.): 21%

Cn1c(=O)c2sc3c(=O)n(C)c(=O)c3sc2c1=O [(1.1), 2,6-dimethyl-1H,5H-[1,4]dithiino[2,3-c:5,6-c′]dipyrrole-1,3,5,7(2H,6H)-tetrone]
Efficacy in % found (activity found) (application rate 10 ppm a.i.): 0%
